Measured values from ChEMBL document CHEMBL3352582, “Protective effects of aloe-emodin on scopolamine-induced memory impairment in mice and H₂O₂-induced cytotoxicity in PC12 cells” (Bioorg Med Chem Lett, 2014).
The source made the active and inactive calls. No cut-off for these calls is given here.

What was measured:
PC-12 [1] = assay: Inhibition of H2O2-induced NO production in rat PC12 cells at 20 ug/ml incubated for 24 hrs prior to H2O2 challenge measured after 2 hrs relative to control; assay type: functional
Mus musculus [2] = assay: Neuroprotective effect in Kunming mouse assessed as reversal of scopolamine-induced increase in AChE activity in hippocampus at 100 mg/kg, po qd administered for 15 days followed by 1 hr prior to trial session for 6 days relative to sham control; assay type: functional, organism-based; design: dose 100 mg/kg
Mus musculus [3] = assay: Neuroprotective effect in Kunming mouse assessed as reversal of scopolamine-induced increase in AChE activity in hippocampus at 25 to 100 mg/kg, po qd administered for 15 days followed by 1 hr prior to trial session for 6 days; assay type: functional, organism-based
PC-12 [4] = assay: Inhibition of H2O2-induced NO production in rat PC12 cells at 10 ug/ml incubated for 24 hrs prior to H2O2 challenge measured after 2 hrs relative to control; assay type: functional
PC-12 [5] = assay: Inhibition of intracellular ROS generation in rat PC12 cells at 5 ug/ml incubated for 24 hrs prior to H2O2 challenge measured after 2 hrs by fluorescence assay relative to control; assay type: functional; conditions: values are per cent of control
Mus musculus [6] = assay: Neuroprotective effect in Kunming mouse assessed as reduction in scopolamine-induced impairment in spatial learning and memory at 25 to 100 mg/kg, po qd administered for 15 days followed by 1 hr prior to trial session for 6 days measured at day 5 by Morris water maze test relative to sham control; assay type: functional, organism-based
Mus musculus [7] = assay: Neuroprotective effect in po dosed Kunming mouse assessed as increase in scopolamine-induced reduction in time spent in target quadrant administered qd for 15 days followed by 1 hr prior to trial session for 6 days by Morris water maze test; assay type: functional, organism-based
PC-12 [8] = assay: Inhibition of intracellular ROS generation in rat PC12 cells at 20 ug/ml incubated for 24 hrs prior to H2O2 challenge measured after 2 hrs by fluorescence assay relative to control; assay type: functional; conditions: values are per cent of control
[9] = Cytoprotective effect against H2O2-induced cell death in rat PC12 cells at 10 ug/ml incubated for 24 hrs prior to H2O2 challenge measured after 2 hrs by MTT assay; assay type: functional, PC-12
Mus musculus [10] = assay: Neuroprotective effect in po dosed Kunming mouse assessed as reduction in scopolamine-induced escape latency administered qd for 15 days followed by 1 hr prior to trial session for 6 days by Morris water maze test; assay type: functional, organism-based
Mus musculus [11] = assay: Neuroprotective effect in po dosed Kunming mouse assessed as increase in scopolamine-induced reduction in time spent in platform crossing administered qd for 15 days followed by 1 hr prior to trial session for 6 days by Morris water maze test; assay type: functional, organism-based
Acetylcholinesterase [12] = molecular target: T1, Acetylcholinesterase (Homo sapiens, UniProt P22303); assay: Inhibition of AChE (unknown origin) by Ellman's method
Mus musculus [13] = assay: Neuroprotective effect in Kunming mouse assessed as reduction in scopolamine-induced increase in MDA level in hippocampus at 25 to 100 mg/kg, po qd administered for 15 days followed by 1 hr prior to trial session for 6 days relative to control; assay type: functional, organism-based
Mus musculus [14] = assay: Neuroprotective effect in Kunming mouse assessed as reduction in scopolamine-induced escape latency at 100 mg/kg, po qd administered for 15 days followed by 1 hr prior to trial session for 6 days by Morris water maze test; assay type: functional, organism-based; design: dose 100 mg/kg
Mus musculus [15] = assay: Neuroprotective effect in Kunming mouse assessed as increase in scopolamine-induced reduction in SOD level in hippocampus at 25 to 100 mg/kg, po qd administered for 15 days followed by 1 hr prior to trial session for 6 days relative to control; assay type: functional, organism-based
Mus musculus [16] = assay: Neuroprotective effect in Kunming mouse assessed as increase in scopolamine-induced reduction in time spent in target quadrant at 50 to 100 mg/kg, po qd administered for 15 days followed by 1 hr prior to trial session for 6 days measured at day 5 by Morris water maze test relative to sham control; assay type: functional, organism-based
Mus musculus [17] = assay: Neuroprotective effect in Kunming mouse assessed as increase in scopolamine-induced reduction in time spent in platform crossing at 50 to 100 mg/kg, po qd administered for 15 days followed by 1 hr prior to trial session for 6 days measured at day 5 by Morris water maze test relative to sham control; assay type: functional, organism-based
Mus musculus [18] = assay: Neuroprotective effect in Kunming mouse assessed as reversal of scopolamine-induced effect on spatial memory performance at 100 mg/kg, po qd administered for 15 days followed by 1 hr prior to trial session for 6 days by Morris water maze test relative to sham control; assay type: functional, organism-based; design: dose 100 mg/kg
PC-12 [19] = assay: Inhibition of H2O2-induced NO production in rat PC12 cells incubated for 24 hrs prior to H2O2 challenge measured after 2 hrs relative to control; assay type: functional, cell-based
Mus musculus [20] = assay: Neuroprotective effect in Kunming mouse assessed as increase in scopolamine-induced reduction in GPx level in hippocampus at 25 to 100 mg/kg, po qd administered for 15 days followed by 1 hr prior to trial session for 6 days relative to control; assay type: functional, organism-based
Mus musculus [21] = assay: Neuroprotective effect in Kunming mouse assessed as increase in scopolamine-induced reduction in swim speed at 25 to 100 mg/kg, po qd administered for 15 days followed by 1 hr prior to trial session for 6 days measured at day 5 by Morris water maze test relative to sham control; assay type: functional, organism-based
Acetylcholinesterase [22] = molecular target: T1, Acetylcholinesterase; conditions: 40 ug/ml
Description: Inhibition of AChE (unknown origin) at 40 ug/ml by Ellman's method

PC-12 [23] = assay: Inhibition of H2O2-induced NO production in rat PC12 cells at 5 ug/ml incubated for 24 hrs prior to H2O2 challenge measured after 2 hrs relative to control; assay type: functional
Mus musculus [24] = assay: Neuroprotective effect in Kunming mouse assessed as reversal of scopolamine-induced reduction in ACh level in hippocampus at 25 to 100 mg/kg, po qd administered for 15 days followed by 1 hr prior to trial session for 6 days; assay type: functional, organism-based
[25] = Cytoprotective effect against H2O2-induced cell death in rat PC12 cells at 20 ug/ml incubated for 24 hrs prior to H2O2 challenge measured after 2 hrs by MTT assay; assay type: functional, PC-12
PC-12 [26] = assay: Inhibition of intracellular ROS generation in rat PC12 cells at 10 ug/ml incubated for 24 hrs prior to H2O2 challenge measured after 2 hrs by fluorescence assay relative to control; assay type: functional; conditions: values are per cent of control
[27] = Cytoprotective effect against H2O2-induced cell death in rat PC12 cells at 5 ug/ml incubated for 24 hrs prior to H2O2 challenge measured after 2 hrs by MTT assay; assay type: functional, PC-12
[28] = Cytotoxicity against rat PC12 cells at 1 to 20 ug/ml by MTT assay; assay type: cell-based; conditions: pc-12
PC-12 [29] = assay: Inhibition of H2O2-induced LDH release in rat PC12 cells at 5 to 20 ug/ml incubated for 24 hrs prior to H2O2 challenge measured after 2 hrs relative to control; assay type: functional, cell-based
Mus musculus [30] = assay: Neuroprotective effect in Kunming mouse assessed as increase in scopolamine-induced reduction in SOD level in hippocampus at 0.1 mg/kg, po qd administered for 15 days followed by 1 hr prior to trial session for 6 days relative to control; assay type: functional, organism-based; design: dose 0.1 mg/kg
Mus musculus [31] = assay: Neuroprotective effect in Kunming mouse assessed as reversal of scopolamine-induced reduction in ACh level in hippocampus at 0.1 mg/kg, po qd administered for 15 days followed by 1 hr prior to trial session for 6 days; assay type: functional, organism-based; design: dose 0.1 mg/kg
Mus musculus [32] = assay: Neuroprotective effect in Kunming mouse assessed as reduction in scopolamine-induced increase in MDA level in hippocampus at 0.1 mg/kg, po qd administered for 15 days followed by 1 hr prior to trial session for 6 days relative to control; assay type: functional, organism-based; design: dose 0.1 mg/kg
Mus musculus [33] = assay: Neuroprotective effect in Kunming mouse assessed as reversal of scopolamine-induced increase in AChE activity in hippocampus at 0.1 mg/kg, po qd administered for 15 days followed by 1 hr prior to trial session for 6 days; assay type: functional, organism-based; design: dose 0.1 mg/kg
Mus musculus [34] = assay: Neuroprotective effect in Kunming mouse assessed as increase in scopolamine-induced reduction in time spent in target quadrant at 0.1 mg/kg, po qd administered for 15 days followed by 1 hr prior to trial session for 6 days measured at day 5 by Morris water maze test relative to sham control; assay type: functional, organism-based; design: dose 0.1 mg/kg
Mus musculus [35] = assay: Neuroprotective effect in Kunming mouse assessed as increase in scopolamine-induced reduction in time spent in platform crossing at 0.1 mg/kg, po qd administered for 15 days followed by 1 hr prior to trial session for 6 days measured at day 5 by Morris water maze test relative to sham control; assay type: functional, organism-based; design: dose 0.1 mg/kg
Mus musculus [36] = assay: Neuroprotective effect in Kunming mouse assessed as increase in scopolamine-induced reduction in GPx level in hippocampus at 0.1 mg/kg, po qd administered for 15 days followed by 1 hr prior to trial session for 6 days relative to control; assay type: functional, organism-based; design: dose 0.1 mg/kg
Mus musculus [37] = assay: Neuroprotective effect in Kunming mouse assessed as reduction in scopolamine-induced escape latency at 0.1 mg/kg, po qd administered for 15 days followed by 1 hr prior to trial session for 6 days by Morris water maze test; assay type: functional, organism-based; design: dose 0.1 mg/kg
PC-12 [38] = assay: Inhibition of H2O2-induced NO production in rat PC12 cells at 20 uM incubated for 24 hrs prior to H2O2 challenge measured after 2 hrs relative to control; assay type: functional, cell-based
PC-12 [39] = assay: Cytoprotective effect against H2O2-induced cell death in rat PC12 cells at 20 uM incubated for 24 hrs prior to H2O2 challenge measured after 2 hrs by MTT assay; assay type: functional, cell-based
PC-12 [40] = assay: Inhibition of H2O2-induced LDH release in rat PC12 cells at 20 uM incubated for 24 hrs prior to H2O2 challenge measured after 2 hrs relative to control; assay type: functional, cell-based

T1 sequence (P22303 whole entry): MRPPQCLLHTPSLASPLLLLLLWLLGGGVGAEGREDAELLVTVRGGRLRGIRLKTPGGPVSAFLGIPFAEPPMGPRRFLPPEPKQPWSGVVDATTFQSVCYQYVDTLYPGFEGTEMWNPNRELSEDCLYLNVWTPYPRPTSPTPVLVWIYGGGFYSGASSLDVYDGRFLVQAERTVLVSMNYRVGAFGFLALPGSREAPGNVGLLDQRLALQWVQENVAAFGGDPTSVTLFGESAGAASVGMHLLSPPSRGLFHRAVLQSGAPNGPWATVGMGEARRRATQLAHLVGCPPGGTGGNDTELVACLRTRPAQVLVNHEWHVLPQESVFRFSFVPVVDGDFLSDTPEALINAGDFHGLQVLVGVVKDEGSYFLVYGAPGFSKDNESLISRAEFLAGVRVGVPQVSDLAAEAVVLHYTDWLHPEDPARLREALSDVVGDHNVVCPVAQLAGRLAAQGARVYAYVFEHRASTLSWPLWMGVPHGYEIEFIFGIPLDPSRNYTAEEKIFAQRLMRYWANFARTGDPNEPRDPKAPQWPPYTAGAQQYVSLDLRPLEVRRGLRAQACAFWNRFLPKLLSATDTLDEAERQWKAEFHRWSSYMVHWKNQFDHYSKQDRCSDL

For O=C1c2cccc(O)c2C(=O)c2c(O)cc(CO)cc21 [ALOE-EMODIN], which inhibition at 20 µg/mL (PC-12 [1]) is on record?
The inhibition at 20 µg/mL was 64.3%.

And the Activity (Mus musculus [2])?
The Activity was “inactive”.

What about the Activity (Mus musculus [3]) of the same compound?
Its Activity is “Active”.

What about the inhibition at 10 µg/mL (PC-12 [4]) of the same compound?
Its inhibition at 10 µg/mL is 46.4%.

And the response, % of control at 5 µg/mL (PC-12 [5])?
Its response, % of control at 5 µg/mL is 195%.

And the Activity (Mus musculus [6])?
The Activity was “Active”.

What about the Activity (Mus musculus [7]) of the same compound?
Its Activity is “Dose-dependent effect”.

And the response, % of control at 20 µg/mL (PC-12 [8])?
The response, % of control at 20 µg/mL was 149%.

What about the Activity [9] of the same compound?
Its Activity is 81%.

And the Activity (Mus musculus [10])?
Its Activity is “Dose-dependent effect”.

What about the Activity (Mus musculus [11]) of the same compound?
Its Activity is “Dose-dependent effect”.

And the IC50 (Acetylcholinesterase [12])?
The IC50 was 68 µM.

What about the Activity (Mus musculus [13]) of the same compound?
Its Activity is “Active”.

And the Activity (Mus musculus [14])?
The Activity was “Active”.

What about the Activity (Mus musculus [15]) of the same compound?
The Activity was “Active”.

What about the Activity (Mus musculus [16]) of the same compound?
The Activity was “Active”.

And the Activity (Mus musculus [17])?
The Activity was “Active”.

What about the Activity (Mus musculus [18]) of the same compound?
The Activity was “Active”.

And the inhibition (PC-12 [19])?
Its inhibition is “Dose-dependent effect”.

And the Activity (Mus musculus [20])?
The Activity was “Active”.

What about the Activity (Mus musculus [21]) of the same compound?
The Activity was “Active”.

And the inhibition (Acetylcholinesterase [22])?
Its inhibition is 70%.

What about the inhibition at 5 µg/mL (PC-12 [23]) of the same compound?
The inhibition at 5 µg/mL was 27.8%.

What about the Activity (Mus musculus [24]) of the same compound?
Its Activity is “Active”.

What about the Activity [25] of the same compound?
Its Activity is 88.7%.

What about the response, % of control at 10 µg/mL (PC-12 [26]) of the same compound?
Its response, % of control at 10 µg/mL is 165%.

And the Activity [27]?
The Activity was 72.9%.

What about the Activity [28] of the same compound?
Its Activity is “Non-toxic”.

And the inhibition (PC-12 [29])?
Its inhibition is “Active”.

With C/C=C1\[C@H]2C=C(C)C[C@]1(N)c1ccc(=O)[nH]c1C2 as the compound, how does the Activity (Mus musculus [30]) read?
The Activity was “Active”.

What about the Activity (Mus musculus [31]) of the same compound?
The Activity was “Active”.

What about the Activity (Mus musculus [32]) of the same compound?
Its Activity is “Active”.

What about the Activity (Mus musculus [33]) of the same compound?
The Activity was “Active”.

What about the Activity (Mus musculus [34]) of the same compound?
Its Activity is “Active”.

What about the Activity (Mus musculus [35]) of the same compound?
Its Activity is “Active”.

And the Activity (Mus musculus [36])?
The Activity was “Active”.

What about the Activity (Mus musculus [37]) of the same compound?
The Activity was “Active”.

Which results are given for VITAMIN E?
inhibition (PC-12 [38]): 76.2%; Activity (PC-12 [39]): Active; inhibition (PC-12 [40]): Active
